Test results taken from patent publication US6906078B2, “Method of using (H+/K+) ATPase inhibitors as antiviral agents” (Pharmacia Corporation, priority 1994, dated 2005).
Read-outs that look alike come from different tables or passages of the source.

Legend:
[1] = biological target: T1, (H+/K+)-ATPase (Canis lupus familiaris, UniProt P50996); experiment: Inhibition of (H+/K+)-ATPase from canine gastric mucosa (inorganic phosphate release); format: biochemical; settings: canine gastric mucosa microsomes, pH 6.0, 30 min preincubation at 37° C.; read-out: (H+/K+)-ATPase IC50
T1 construct: The microsomes retained at the 15%-30% sucrose interface, after centrifugation at 250,000×g for sixty minutes, were used as the source of (H^+/K^+)-ATPase; from tissue; host or cells: gastric glandular mucosa of mongrel dogs (microsomal fraction, lyophilized)
T1 sequence (P50996 whole entry): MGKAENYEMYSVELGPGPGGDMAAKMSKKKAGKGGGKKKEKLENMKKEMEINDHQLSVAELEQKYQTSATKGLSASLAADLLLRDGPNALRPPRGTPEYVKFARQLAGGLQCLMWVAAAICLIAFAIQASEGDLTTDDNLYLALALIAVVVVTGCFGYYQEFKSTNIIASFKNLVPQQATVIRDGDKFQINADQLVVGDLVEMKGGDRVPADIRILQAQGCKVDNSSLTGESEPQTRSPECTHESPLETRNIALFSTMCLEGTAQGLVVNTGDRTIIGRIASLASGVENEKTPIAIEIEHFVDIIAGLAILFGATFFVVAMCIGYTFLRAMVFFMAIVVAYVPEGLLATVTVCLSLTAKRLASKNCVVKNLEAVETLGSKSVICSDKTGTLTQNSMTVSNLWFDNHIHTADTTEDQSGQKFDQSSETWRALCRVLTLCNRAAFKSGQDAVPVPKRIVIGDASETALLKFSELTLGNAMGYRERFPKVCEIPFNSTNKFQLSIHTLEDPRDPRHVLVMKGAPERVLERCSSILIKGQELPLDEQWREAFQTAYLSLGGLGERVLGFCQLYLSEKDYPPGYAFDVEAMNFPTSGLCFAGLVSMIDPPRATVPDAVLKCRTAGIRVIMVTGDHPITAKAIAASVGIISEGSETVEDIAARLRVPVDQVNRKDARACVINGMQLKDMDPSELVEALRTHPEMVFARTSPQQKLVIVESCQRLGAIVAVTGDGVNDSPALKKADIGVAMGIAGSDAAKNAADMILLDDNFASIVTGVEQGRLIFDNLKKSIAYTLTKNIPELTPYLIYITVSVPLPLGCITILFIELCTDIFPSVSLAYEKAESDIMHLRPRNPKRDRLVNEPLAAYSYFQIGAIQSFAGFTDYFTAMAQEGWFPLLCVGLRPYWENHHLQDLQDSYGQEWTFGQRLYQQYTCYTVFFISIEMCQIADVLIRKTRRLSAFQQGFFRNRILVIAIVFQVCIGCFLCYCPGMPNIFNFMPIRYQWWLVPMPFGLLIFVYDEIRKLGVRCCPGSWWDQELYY
T1 sequence (P33704 whole entry partner): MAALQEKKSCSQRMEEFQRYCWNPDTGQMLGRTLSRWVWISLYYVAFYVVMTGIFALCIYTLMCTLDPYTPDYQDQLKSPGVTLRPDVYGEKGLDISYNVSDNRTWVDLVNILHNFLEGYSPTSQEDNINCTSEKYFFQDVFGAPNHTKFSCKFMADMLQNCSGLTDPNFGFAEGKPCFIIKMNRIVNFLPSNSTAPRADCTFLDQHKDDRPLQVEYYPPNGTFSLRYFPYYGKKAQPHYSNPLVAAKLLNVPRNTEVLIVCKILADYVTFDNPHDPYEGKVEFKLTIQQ
Outline: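 Lyophilised gastric microsomes (sucrose-gradient 15%/30% interface fraction from dog mucosa, ~25 mcg protein) preincubated with compound 30 min at 37° C in 20 mM MES-Tris pH 6.0, 5 mM MgCl2, 25 mM sucrose, then 30 min more after 4 mM Tris-ATP. Released phosphate read by molybdate/ascorbate at 870 nm; activity = K+-stimulated (20 mM KCl) minus basal.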

[2] = system: gastric acid secretion; experiment: Inhibition of gastric acid secretion in gastric fistula beagle dogs (histamine-stimulated); format: in vivo; settings: Canis lupus familiaris, 4 h, histamine-stimulated, four-hour period, read-out: Gastric-Fistula Beagle % Inhibition (3 mg/kg dose)
Description: Adult female beagle dogs weighing 6 to 11 kilograms obtained from Laboratory Research Enterprises (Kalamazoo, Mich.) or from Hazelton Research Animals (Cumberland, Va.) were surgically implanted with a simple Thomas-type gastric cannula. After recovery from surgery, the dogs were trained to stand quietly, fully conscious, in Pavlov-type dog restraining slings and were acclimated to intravenous infusion of histamine dihydrochloride. During the course of these studies, no dog was used more than once a week. All dogs were deprived of food, but not water, for 18 hours prior to each assay. Each dog was initially infused with 0.15 M sodium chloride solution at a constant rate of […]. The volume of gastric secretions, collected in plastic bottles affixed to the cannula, were measured to the nearest 0.1 ml at 30 minute intervals. One of the following protocols was followed, depending on the route chosen for administration of test compound.
Intravenous dosing: Following a 30-minute basal secretion period, test compounds were administered intravenously (i.v.). At the end of an additional 30 minute period, the saline infusion was replaced with histamine dihydrochloride in saline administered at a rate 15 mcg per kilogram of body weight per hour. Histamine stimulation was maintained for a maximum of four hours during which time gastric secretions were collected every 30 minutes. The pH and titratable acidity were determined for samples from each collection period.
Intragastric dosing: Following a 30-minute basal secretion period, he collection bottles were removed, dosing plugs here inserted, and test compounds were administered intragastrically (i.g.) At the end of a 30-minute drug absorption period, the stomachs were emptied, the collection bottles were reattached, and collections were resumed at 30-minute intervals. Simultaneously, the saline infusion was replaced with a continuous intravenous infusion of histamine dihydrochloride in saline administered for four hours at a rate 15 mcg per kilogram of body weight per hour.
Intraduodenal dosing: Dogs were also equipped with duodenal cannulas for intraduodenal (i.d.) administration of test compounds. Dosing was otherwise performed as described for intragastric dosing.
Data from each protocol were analyzed for three gastric sample variables: volume of gastric juice, acid concentration, and total acid output. Percent inhibition for each four-hour experimental period was determined for each parameter by comparison with 3 to 4 controls in which […]. Estimates of ED50's were determined from dose response curves.

[3] = system: gastric acid secretion; experiment: Inhibition of gastric acid secretion in meal-stimulated Pavlov pouch dog; format: in vivo, beagle dogs; settings: 3 mg/kg, four-hour period
Procedure: Adult female beagle dogs weighing 6 to 10 kilograms were obtained from Laboratory Research Enterprises (Kalamazoo, Mich.) or from Hazelton Research Animals (Cumberland, Va.). Surgical implantation of a Thomas-type gastric cannula into an innervated Pavlov pouch of each dog was performed by the method reported by L. Burrows et al., J. Surgical Res., 4, 147 (1964). After recovery from surgery, the dogs were trained to stand quietly, fully conscious, in Pavlov-type dog restraining slings. All dogs were deprived of food, but not water, for 24 hours prior to each assay. Basal acid secretion was measured by collecting from the cannulas for 30 minutes before dosing with a test compound. Solutions of the test compounds in iso-osmotic phosphate buffer (pH 7.4) were given either intravenously or directly into the Pavlov pouch. After 30 minutes the pouch was drained. The dogs were then fed 320 grams of dog food and gastric acid secretions were collected each half hour for four hours. Controls were determined in the same way except that only food (i.e., no test compound) was administered.
Data were analyzed for three different variables: volume of gastric juice, acid concentration, and total acid output. Percent inhibition for the four-hour experimental period was determined for each parameter by comparison with 3 to 4 controls. Estimates of ED50 were determined from dose response curves.

Compound	IC50 [1]	inhibition in vivo at 3 mg/kg ([2]; iv, 3 mg/kg i.v.)	Pavlov-Pouch Dog % Inhibition (dose (mg/kg)) [3]	melting point	inhibition in vivo at 3 mg/kg ([2]; intraduodenal, 3 mg/kg i.d.)	inhibition in vivo at 3 mg/kg ([2]; po, 3 mg/kg i.g.)
CN(C)c1ccccc1C[S+]([O-])c1nc2ccccc2[nH]1 (stereo not shown) [Example 4, 2-[(1H-Benzimidazol-2-ylsulfinyl)methyl]N,N-dimethylbenzenamine]	700 nM	14%	3 (3 mg/kg) %	107 to 109 °C	–	–
COc1ccc2[nH]c([S+]([O-])Cc3cc(C)ccc3N)nc2c1 (stereo not shown) [Example 34, 2-[[(5-Methoxy-1H-benzimidazol-2-yl)sulfinyl]methyl]-4-methylbenzenamine]	4200 nM	91%	79 (3 mg/kg) %	148 to 149 °C	66%	43%
